Source: PubChem BioAssay (NCI)
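In this assay, cells in 96-well plates receive the compound at five concentrations for 48 hours. Endpoints are linearly interpolated between the surrounding concentrations. The concentration for 50% growth inhibition is given as GI50. At the TGI there is no net growth.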

Legend:
Test in all cases: NCI-60 cell line screen, 48 h
OVCAR-8 ovarian = test system: OVCAR-8 ovarian
SK-MEL-28 melanoma = test system: SK-MEL-28 melanoma
SW-620 colon = test system: SW-620 colon
SNB-19 CNS = test system: SNB-19 CNS
IGROV1 ovarian = test system: IGROV1 ovarian
A498 renal = test system: A498 renal
NCI-H226 lung = test system: NCI-H226 lung
HCT-15 colon = test system: HCT-15 colon
MDA-MB-231 breast = test system: MDA-MB-231 breast
EKVX NSCLC = test system: EKVX NSCLC

SMILES | GI50 (OVCAR-8 ovarian) [µM] | TGI (OVCAR-8 ovarian) [µM] | GI50 (SK-MEL-28 melanoma) [µM] | TGI (SK-MEL-28 melanoma) [µM] | GI50 (SW-620 colon) [nM] | TGI (SW-620 colon) [µM] | GI50 (SNB-19 CNS) [µM] | TGI (SNB-19 CNS) [µM] | GI50 (IGROV1 ovarian) [nM] | TGI (IGROV1 ovarian) [µM] | GI50 (A498 renal) [nM] | TGI (A498 renal) [µM] | GI50 (NCI-H226 lung) [µM] | TGI (NCI-H226 lung) [µM] | GI50 (HCT-15 colon) [nM] | TGI (HCT-15 colon) [µM] | GI50 (MDA-MB-231 breast) [nM] | TGI (MDA-MB-231 breast) [µM] | TGI (EKVX NSCLC) [µM] | GI50 (EKVX NSCLC) [nM]
O=C1CC(c2ccsc2)c2snc(-c3ccc(Cl)cc3)c2N1 (configuration not stated) | 3.01 | > 100 | 3.11 | > 100 | 429 | > 100 | 3.78 | > 100 | 2870 | > 100 | 1090 | 7.94 | 7.55 | > 100 | 489 | > 100 | 1330 | > 100 | – | –
CCOc1ccc(NCC2CC/C(=C\c3ccc(Cl)cc3)C2=O)cc1 (configuration not stated) | – | > 52.8 | – | > 100 | – | 39.6 | – | > 100 | – | > 50.6 | – | > 95.9 | – | > 100 | – | 23.7 | – | – | > 73.8 | –
Cc1ccc(/C=C/C(=O)c2ccc([N+](=O)[O-])cc2)cc1 | – | > 100 | – | > 100 | – | > 100 | – | > 100 | – | > 100 | – | 19.1 | – | > 100 | – | > 100 | – | – | > 100 | –
Cc1cccc(C(C)C)c1NC(=O)CCl | – | – | – | > 100 | – | > 100 | – | > 100 | – | – | – | > 100 | – | > 100 | – | > 100 | – | – | 53.2 | –
CCOC(=O)c1ccccc1SC(C[N+](=O)[O-])c1ccccc1 (configuration not stated) | 10.5 | 22.5 | 1.91 | 3.74 | 2040 | 4.7 | 11.7 | 23.9 | 3880 | 15 | 3630 | 16 | 16.1 | 44.5 | 2370 | 6.78 | 9100 | 21.8 | – | –
C=C1CCC2C(C)(CO)C(O)CCC2(C)C1C/C=C1/CCOC1=O (configuration not stated) | – | > 100 | – | – | – | > 100 | – | > 100 | – | > 100 | – | > 100 | – | > 100 | – | > 100 | – | – | > 100 | –
O=C1CCNC(=O)NC1 | – | > 100 | – | > 100 | – | > 100 | – | > 100 | – | > 100 | – | > 100 | – | > 100 | – | > 100 | – | – | > 100 | –
O=C1c2cccc3c(Cl)ccc(c23)C(=O)N1CCCN1CCN(CCCN2C(=O)c3cccc4c(Cl)ccc(c34)C2=O)CC1 | – | > 100 | – | – | – | > 100 | – | > 100 | – | > 100 | – | > 100 | – | > 100 | – | > 100 | – | – | > 100 | –
CCC(C)c1cccc(C)c1NC(=O)C(=O)Cc1nc2ccccc2s1 (configuration not stated) | – | > 100 | – | > 100 | – | > 100 | – | > 100 | – | > 100 | – | > 100 | – | – | – | > 100 | – | – | > 100 | –
c1ccc2c(c1)Sc1ccccc1N2C1CN2CCC1CC2 (configuration not stated) | – | 32.5 | – | 32.1 | – | 33.2 | – | 46.7 | – | 42.3 | – | 22.5 | – | 18.9 | – | 34 | – | – | 27.7 | –
COc1ccc(-c2nc(-c3ccccn3)c(-c3ccccn3)n2CC(C)C)cc1OC1CCCC1 | 17.3 | 158 | 38.7 | 159 | 42000 | > 165 | 30.2 | > 165 | 11500 | > 165 | 16500 | 82.7 | 21.3 | > 165 | 6720 | > 165 | 18200 | 125 | – | –
O=C(/C=C/c1ccccc1O)c1cccc2ccccc12 | – | > 100 | – | > 100 | – | > 46.9 | – | > 100 | – | > 100 | – | > 100 | – | > 100 | – | > 58.4 | – | – | > 100 | –
O=C1NC(=O)[C@@H](c2c[nH]c3ccccc23)[C@@H]1c1c[nH]c2ccccc12 | > 25 | > 25 | > 25 | > 25 | > 25000 | > 25 | > 25 | > 25 | > 25000 | > 25 | > 25000 | > 25 | > 25 | > 25 | > 25000 | > 25 | > 25000 | > 25 | – | –
O=C1CCCC(O)=C1SC1=C(O)CCCC1=O | – | > 100 | – | > 100 | – | > 100 | – | > 100 | – | > 100 | – | > 100 | – | > 100 | – | > 100 | – | – | > 100 | –
CCOC(=O)c1ccc(N(C=O)CCC(=O)CCl)cc1 | 0.0998 | 11.3 | 1.74 | 15.2 | 39.8 | 1.53 | 2.37 | 22.4 | 537 | 8.33 | 1470 | 5.87 | 0.297 | 1.36 | 48.7 | 2.58 | 275 | 1.16 | – | –
CN1C(=O)CCC1c1ccc2c(c1)oc(=O)n2C (configuration not stated) | – | > 100 | – | > 100 | – | > 100 | – | > 100 | – | > 100 | – | – | – | > 100 | – | > 100 | – | – | > 100 | –
O=C(NO)c1ccc(Cn2c(=O)n(-c3ccccc3)c(=O)c3ccccc32)cc1 | – | – | 0.519 | 2.93 | 667 | 3.03 | 1.85 | > 100 | – | – | 418 | 2.09 | 1.32 | 2.91 | – | – | 1630 | 5.16 | 2.69 | 1110
COc1ccc(C(=O)/C=C/c2cc(-c3ccc4c(c3)OCO4)n[nH]2)cc1OC | 2.15 | 5.82 | 5.76 | 19.3 | 2050 | 4.81 | 3.2 | 15.2 | 2790 | 9.2 | 1550 | 4.23 | 3.4 | 11.2 | 2810 | > 100 | 2440 | 7.39 | – | –
CCOC(=O)C(=O)Nc1ccccc1OCC | – | > 100 | – | > 100 | – | > 100 | – | > 100 | – | > 100 | – | – | – | > 100 | – | – | – | – | > 100 | –
